Results on one molecule are retold here after ChEMBL document CHEMBL6092203, “Discovery of Novel PROTAC-Based HPK1 Degraders with High Potency and Selectivity for Cancer Immunotherapy” (J Med Chem, 2024).

A short description of this data set: Metabolic stability in mouse hepatocytes assessed as intrinsic clearance at 1 uM incubated for 90 mins by LC-MS/MS method. It is filed as ADME, cell-based, Hepatocyte. The note with it: 1.5 h.

`O=C1CCN(c2cc(C(=O)N3CCC(CC4CCN(c5ccc(-c6cnc7[nH]cc(-c8cnn(CC(F)(F)F)c8)c7n6)cn5)CC4)CC3)ccc2Cl)C(=O)N1`: the CLH stood at 1.52 µL/min/mg.
